Laboratory results: ChEMBL document CHEMBL3639046, “Substituted pyrimido[1,2-b]indazoles and their use as modulators of the Pi3K/Akt pathway” (2015)

Molecular target: RAC-alpha serine/threonine-protein kinase (Homo sapiens, UniProt P31749)
Assay: TR-FRET assay: For the assay 50 nl of a 100fold concentrated solution of the test compound in DMSO was pipetted into a black low volume 384well microtiter plate (Greiner Bio- One, Frickenhausen, Germany), 2 ul of a solution of Akt1 in assay buffer [50 mM TRIS/HCI pH 7.5, 5 mM MgCI2, 1 mM dithiothreitol, 0.02% (v/v) Triton X-100 (Sigma)] were added and the mixture was incubated for 15 min at 22 C to allow pre-binding of the test compounds to the enzyme before the start of the kinase reaction. Then the kinase reaction was started by the addition of 3 ul of a solution of adenosine-tri-phosphate (ATP, 16.7 ul => final cone, in the 5 ul assay volume is 10 ul) and substrate (1 .67 ul => final cone, in the 5 ul assay volume is 1 ul) in assay buffer and the resulting mixture was incubated for a reaction time of 60 min at 22 C. The concentration of Akt1 in the assay was adjusted depending of the activity of the enzyme lot.

Chain of RAC-alpha serine/threonine-protein kinase (P31749 whole entry): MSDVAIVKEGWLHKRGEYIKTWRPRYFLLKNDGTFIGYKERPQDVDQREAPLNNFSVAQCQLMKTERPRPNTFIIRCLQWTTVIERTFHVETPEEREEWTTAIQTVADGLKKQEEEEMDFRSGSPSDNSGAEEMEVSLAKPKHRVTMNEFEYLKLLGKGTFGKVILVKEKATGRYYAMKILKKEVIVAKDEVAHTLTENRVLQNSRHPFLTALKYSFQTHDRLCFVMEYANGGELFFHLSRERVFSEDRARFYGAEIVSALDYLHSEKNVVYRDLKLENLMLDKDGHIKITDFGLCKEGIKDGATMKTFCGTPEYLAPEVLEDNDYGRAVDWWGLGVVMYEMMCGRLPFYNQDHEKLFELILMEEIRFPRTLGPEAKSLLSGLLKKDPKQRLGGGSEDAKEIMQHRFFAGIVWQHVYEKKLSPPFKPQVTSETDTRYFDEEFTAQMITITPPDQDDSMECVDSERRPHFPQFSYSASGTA

Compound	IC50 [nM]
NC1(c2ccc(-c3nc4c5cc(-c6ccc(F)cc6)ccc5nn4cc3-c3ccccc3)cc2)CCC1	110
N#Cc1ccc(-c2cccc3nn4cc(-c5ccccc5)c(-c5ccc(C6(N)CCC6)cc5)nc4c23)cc1	320
N#Cc1cccc(-c2cccc3c2nn2cc(-c4ccccc4)c(-c4ccc(C5(N)CCC5)cc4)nc32)c1	10000

Now those with a lower IC50, led by results:

IC50 [nM]	Compound
93	NC1(c2ccc(-c3nc4c5cc(F)ccc5nn4cc3-c3ccccc3)cc2)CCC1
100	NC1(c2ccc(-c3nc4c5cccc(O)c5nn4cc3-c3ccccc3)cc2)CCC1
67	N#Cc1cccc(-c2ccc3nn4cc(-c5ccccc5)c(-c5ccc(C6(N)CCC6)cc5)nc4c3c2)c1
49	N#Cc1cccc2c1nn1cc(-c3ccccc3)c(-c3ccc(C4(N)CCC4)cc3)nc21
